“Also recorded” adds a separate entry of the source.
Key:
[1] = tested on: primary Vk*MYC multiple myeloma cells; test: Primary Vk*MYC multiple myeloma cells; format: cell-based, mouse; conditions: 7.5 or 15 μM, 48 h
Experimental: Isolated primary cells were seeded then incubated for 48 hours in growth medium supplemented with water, penetratin, P7-Pen, P7-A4-Pen or P7-N4-Pen, then counted. Peptides were included at concentrations of 7.5 or 15 μM. […] Results are based on 3 biological replicates, error bars show standard deviation of mean.
Multiple myeloma cells JJN-3 (DSMZ (Germany) no. ACC 541), ANBL-6 (Cellosaurus accession number CVCL_5425, obtained from Dr Diane Jelinek, Mayo Clinic, Rochester, Minn.), INA-6 (Cellosaurus accession number CVCL_5209, obtained from Dr M. Gramatzki, University of Erlangen-Nurnberg, Erlangen, Germany), RPMI-8226 (ATCC CCL-155), and IH-1 (Cellosaurus accession number CVCL_WZ44, established from the pleural effusion of a myeloma patient by Myeloma research group, IKOM, NTNU, Trondheim, Norway) were grown in RPMI-1640 (Sigma-Aldrich Norway, Oslo, Norway) supplemented with 100 nM penicillin/streptomycin and 10% FCS, and for ANBL-6, IH-1 and INA-6 cells 2 ng/ml recombinant IL-6 (Gibco, Thermo Fisher Scientific, Waltham, Mass., USA). Murine multiple myeloma Vk*MYC cells were obtained from M.D. Leif Bergsagel (Mayo Clinic, Richester, Minn., USA) and cultured in RPMI-1640 supplemented with 2% human serum (B^+, The blood bank, St Olav's Hospital, Trondheim, Norway), 100 nM penicillin/streptomycin, L-Glutamine (2 mM) and recombinant IL-6 (1 ng/ml). HEK293T (ATCC CRL-3216) were cultured in DMEM with 10% FCS. THP-1 TRAM knockout (KO) and TLR4 KO cell lines, and matching lentivirally transduced control cell lines, were differentiated in the same way as wild type (WT) THP-1. TRAM KO THP-1 cell line is described in Yurchenko et al. (supra).
Primary multiple myeloma cells were isolated from Vk*Myc mice and provided by the Multiple Myeloma Research Group, IKOM, NTNU. The peptides P7-Pen, P7-N4-Pen and P7-A4-Pen were applied to the cultured primary cells and effect of the peptides on cell growth analysed as previously.

TLR8 = test: Whole blood assay, CL075 stimulation; format: cell-based, human
Source text: […] Results are for at least 6 donors. The Wilcoxon matched-pairs signed rank test was used for statistical analysis between 2 groups in Prizm 8.2.1. In each graph, circles indicate whole blood pre-treated with water, squares indicate blood pre-treated with control peptide (average for treatment with Pen and C3-Pen), and triangles indicate pre-treatment with P7-Pen.
To evaluate the effect of peptides in an ex vivo system, a human whole blood model was used. Peripheral venous blood was drawn from 6 healthy donors into sterile polypropylene tubes (Thermo Scientific™ Nunc™ Biobanking and Cell Culture Cryogenic Tubes) containing the anti-coagulant Lepirudin (Refludan®; Celgene). Peptide solutions were made by diluting peptide stocks in DPBS (Dulbecco's Phosphate Buffered Saline with MgCl2 and CaCl2; Sigma-Aldrich) to obtain a final concentration of 140 μM. Peptide solution or DPBS was distributed in equal volume (50 μL) to 1.8 mL sterile polypropylene tubes (Thermo Scientific™Nunc™ Biobanking and Cell Culture Cryogenic Tubes). 250 μL whole blood was then added to the 1.8 mL tubes containing peptide solution or DPBS, and incubated at 37° C. under constant rotation for 1 h (concentration of peptides for pre-incubation: 23.3 μM). Stimulation solutions were made by diluting K12 LPS or CL075 in DPBS to obtain a final concentration in whole blood of 100 ng/mL (LPS) or 1 μg/mL (CL075) after addition of 50 μL stimulation solution or DPBS. Concentration of peptides in whole blood samples was reduced by this to 20 μM. Tubes were incubated at 37° C. under constant rotation for 4 h. Finally, plasma was isolated from the whole blood specimens by centrifugation, collected in 96 well plates (Corning® 96 Well CellBIND® Microplates), and stored at −20/−80° C. until analysis by multiplex/27-plex cytokine assay or IFNβ ELISA (VeriKine-HS Human Interferon Beta Serum ELISA Kit; pbl Assay Science).

E. coli particles = test: Whole blood assay, E. coli particle stimulation; format: cell-based, human
TLR4 = test: qPCR of LPS-mediated cytokine mRNA expression in THP-1 macrophages; format: cell-based, human; conditions: for IFNβ and CXCL10 mRNA expression: 30 min pre-treatment, LPS
Experimental: SW480 (ATCC CCL-228) and Jurkat (ATCC Clone E6-1; TIB-152) cells were cultured in RPMI 1640 (Sigma-Aldrich, Schnelldorf, Germany) supplemented with 10% heat-inactivated FCS, penicillin/streptomycin (Life Technologies) and 20 mM L-Glutamine. THP-1 cells (ATCC TIB-202) were cultured in RPMI-1640 (high-glucose, ATCC) supplemented with 10% heat inactivated foetal calf serum (FCS), 100 nM penicillin/streptomycin and 5 μM β-mercaptoethanol (Sigma). THP-1 cells were differentiated with 60 ng/ml phorbol 12-myristate 13-acetate (PMA, Sigma) for 72 h, followed by 24 or 48 h in medium without PMA.
Total RNA was isolated from the cells using Qiazol reagent #79306 from QIAGEN, and chloroform extraction followed by purification on RNeasy Mini columns with DNAse digestion (Qiagen). cDNA was prepared using the Maxima First Strand cDNA Synthesis Kit for quantitative real-time polymerase chain reaction (RT-qPCR) (Thermo Fisher Scientific) according to the manufacturer's protocol. qPCR was performed using the PerfeCTa qPCR FastMix (Quanta Biosciences) in replicates and cycled in a StepOnePlus™ Real-Time PCR cycler. The following TaqMan® Gene Expression Assays (Applied Biosystems®) were used: IFNβ (Hs01077958_s1), TNF (Hs00174128_m1), TBP (Hs00427620_m1), CXCL10 (Hs01124251_g1), IL-6 (Hs00174131_m1) and IL-1β (Hs01555410_m1), for human cells; Ifnβ (Mm00439552_s1), Tnf (Mm00443258_m1), Tbp (Mm01277042_m1) and II-1β (Mm00434228_m1), for mouse cells. No RT controls were negative. The level of TBP mRNA was used for normalisation and results presented as relative expression compared to the control untreated sample. Relative expression was calculated using Pfaffl's mathematical model (Pfaffl, Nucleic Acids Research 29(9): e45, 2001). Results are presented as the mean and SD expression fold change for biological replicates relative to non-stimulated cells. Statistical significance was evaluated in GraphPad Prizm 5.03. Data distribution was assumed to be normal but this was not formally tested. The difference between the two groups was determined by two-tailed t test.

Ac-ITVAASVTLTGRQIKIWFQNRRMKWKK-NH2 [Peptide P7-A4-Pen]
effect on primary multiple myeloma cells [1]: strong cytotoxic effect

Ac-ITVYASVTLTGRQIKIWFQNRRMKWKK-NH2 [Peptide P7-Pen]
TLR8-mediated pro-inflammatory cytokine secretion (TLR8; 20 μM, CL075): no significant effect | TLR8-mediated IFNβ release/secretion by whole blood cells (TLR8; 20 μM, CL075 1 μg/ml 4 h): effectively abrogated; also recorded: inhibited | E. coli-mediated IFNβ secretion (E. coli particles; 20 μM, 4 h): significantly inhibiting | E. coli-mediated IL-1β secretion (E. coli particles; 20 μM, 4 h): no significant effect | E. coli-mediated TNF production (E. coli particles; 20 μM, 4 h): Significant inhibition | E. coli-mediated IL-6 (E. coli particles; 20 μM, 4 h, not statistically significant): a degree of inhibition | effect on primary multiple myeloma cells [1]: strong cytotoxic effect | IFNβ and CXCL10 mRNA expression (TLR4; 10 μM): reduced

Ac-ITVYASVTLTGRRRRRRRRRRR-NH2 [Peptide P7-Arg11]
CL075-mediated IFNβ secretion by whole blood cells (TLR8; pilot assay, 10 μM, CL075 1 μg/ml): inhibited | E. coli-mediated IFNβ secretion by whole blood cells (E. coli particles; pilot assay, 10 μM, E. coli particles): inhibited | IFNβ and CXCL10 mRNA expression (TLR4; 10 μM): reduced | LPS-mediated IFNβ, CXCL10 and TNF expression (TLR4; 10 μM, 1 h pre-treatment, LPS 100 ng/ml): clear inhibitory effect | expression of IFNβ, CXCL10 and TNF mRNA (TLR4; 20 μM, 1 h pre-treatment, LPS 100 ng/ml): totally inhibited | LPS-induced cytokine expression levels (IFNβ, TNF and CXCL10 mRNA) (TLR4; peptide removed from media after pre-treatment, before LPS stimulation (data not shown)): No changes

Source: patent US20230220047A1, “PEPTIDES FOR TREATMENT OF SEPSIS AND CANCER” (NORWEGIAN UNIVERSITY OF SCIENCE AND TECHNOLOGY (NTNU), priority 2020, published 2023)
